Laboratory results published in patent US7169805B2 (Nicox S.A., priority 2003, dated 2007).

Columns and labels:
[1] = tested on: isolated rabbit thoracic aorta preparations; assay: Vasorelaxing activity in isolated rabbit thoracic aorta rings precontracted with noradrenaline; format: cell-based; settings: for Emax / IC50: Oryctolagus cuniculus, NA (1 μM) precontracted rings with functional endothelium; for Emax: at 100 μM of tested compound, read-out: Emax (maximum efficacy); for IC50: read-out: IC50 (concentration producing 50% of the maximum relaxation)
Method: Male New Zealand rabbits were anaesthetized with thiopental-Na (50 mg/kg, iv), sacrificed by exsanguinations and then the thorax was opened and the aorta dissected. Single ring preparations (4 mm in length) of thoracic aorta were set up in physiological salt solution (PSS) at 37° C. in small organ chambers (5 ml). The composition of PSS was (mM): NaCl 130, NaHCO3 14.9, KH2PO4 1.2, MgSO4 1.2, HEPES 10, […] (95% O2/5% CO2; pH 7.4). Each ring was mounted under 2 g passive tension. Isometric tension was recorded with a Grass transducer (Grass FT03) attached to a BIOPAC MP150 System. Preparations were allowed to equilibrate for 1 h, then contracted submaximally with noradrenaline (NA, 1 μM) and, when the contraction was stable, acetylcholine (ACh, 10 μM) was added. A relaxant response to ACh indicated the presence of a functional endothelium. […] When a stable precontraction was reached, a cumulative concentration-response curve for each of the tested compounds was obtained in the presence of a functional endothelium. Time intervals between different concentrations were based on the time needed to reach a full response. Each arterial ring was exposed to only one combination of inhibitor and the tested compounds. Moreover, the effect of the soluble guanylyl cyclase inhibitor ODQ (1-H-(1,2,4)-oxadiazol (4,3-a)quinoxalin-1-one) on the dilator responses elicited by the compounds was examined preincubating the aortic rings with ODQ (10 μM) for 20 min.
Results are expressed as IC50 value, which is the concentration of the tested compound producing 50% of the maximum relaxation, and as Emax value which is the maximum efficacy at a concentration of 100 μM of the tested compound.
During the experimental period, the plateau obtained with NA was stable without significant spontaneous loss of contraction in the aortic rings.
Furthermore, in experiments performed in presence of ODQ (10 μM), the vasorelaxant responses to all the tested compounds were inhibited.

[2] = tested on: SHR rats; assay: Antihypertensive activity in a genetic model of hypertension (SHR rats), arterial pressure; format: in vivo, rat; settings: single oral dose 30 mg/Kg; for Arterial pressure (MAP): 4 hours after treatment; for Reduction of blood pressure vs the control: 4 hrs after treatment
Method: (§1) SHR rats were treated orally in a single dose of 30 mg/Kg. After 2 hours the animal were anaesthetized with tiopental-Na; a fluid catheter was inserted in a right carotid artery and connected to a transducer for the homodynamic measurements. 4 hours after the treatment the arterial pressure (MAP, mmHg) was measured.

[3] = given orally; cited from earlier work
[4] = molecular target: T1, ACE (Rattus norvegicus, UniProt P47820); assay: Plasma ACE activity of treated SHR rats, spectrophotometric FAPGG hydrolysis; format: in vivo; settings: heparinized plasma of SHR rats after single oral dose 30 mg/Kg, collected at end of experiment
T1 construct: from tissue; host or cells: heparinized plasma of orally treated SHR rats
T1 sequence (P47820 36-1238 limits assumed): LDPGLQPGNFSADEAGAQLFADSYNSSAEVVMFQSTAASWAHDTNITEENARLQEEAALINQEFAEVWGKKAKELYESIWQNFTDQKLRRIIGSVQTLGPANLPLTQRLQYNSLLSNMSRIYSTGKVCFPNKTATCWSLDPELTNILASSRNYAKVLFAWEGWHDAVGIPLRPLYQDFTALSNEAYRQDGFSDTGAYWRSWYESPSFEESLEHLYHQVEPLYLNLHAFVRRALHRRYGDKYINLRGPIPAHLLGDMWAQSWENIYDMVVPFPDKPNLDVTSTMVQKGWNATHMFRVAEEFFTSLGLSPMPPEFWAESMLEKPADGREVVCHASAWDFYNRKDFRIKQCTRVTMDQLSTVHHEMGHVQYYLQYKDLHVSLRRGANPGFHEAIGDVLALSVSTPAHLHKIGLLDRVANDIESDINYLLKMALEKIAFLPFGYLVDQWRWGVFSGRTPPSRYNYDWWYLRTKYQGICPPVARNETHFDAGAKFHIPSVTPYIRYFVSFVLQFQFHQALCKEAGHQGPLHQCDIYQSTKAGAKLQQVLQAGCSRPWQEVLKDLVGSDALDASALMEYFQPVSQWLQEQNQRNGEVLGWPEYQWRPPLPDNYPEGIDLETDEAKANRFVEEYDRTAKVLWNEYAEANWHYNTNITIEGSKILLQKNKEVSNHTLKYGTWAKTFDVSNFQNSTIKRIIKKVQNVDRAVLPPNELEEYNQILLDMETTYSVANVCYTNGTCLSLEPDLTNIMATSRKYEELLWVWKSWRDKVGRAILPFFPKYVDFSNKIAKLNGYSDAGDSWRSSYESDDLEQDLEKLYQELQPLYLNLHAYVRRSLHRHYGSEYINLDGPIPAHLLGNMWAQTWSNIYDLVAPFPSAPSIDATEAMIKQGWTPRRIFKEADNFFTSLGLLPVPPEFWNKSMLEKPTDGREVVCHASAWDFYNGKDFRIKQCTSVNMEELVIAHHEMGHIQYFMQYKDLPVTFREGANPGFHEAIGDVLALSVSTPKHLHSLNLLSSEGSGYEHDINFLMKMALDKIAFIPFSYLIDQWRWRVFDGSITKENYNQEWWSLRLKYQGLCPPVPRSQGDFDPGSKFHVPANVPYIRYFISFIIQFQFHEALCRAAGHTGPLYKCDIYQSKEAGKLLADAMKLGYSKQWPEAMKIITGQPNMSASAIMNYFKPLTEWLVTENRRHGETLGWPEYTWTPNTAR
Method: as §1
At the end of the experiments the blood was collected from the right carotid. The heparinized blood samples were centrifuged at 1000 g for 20 min at 4° C. The plasma was stored at −20° C. until the ACE activity measurements.
The ACE activity was determined by a spectrophotometric method (Sigma) based on the enzymatic reaction catalysed by ACE, where the FAPGG was hydrolysed to FAP.
FAPGG hydrolysis produced a decrease in the absorbance at 340 nm, a marker of ACE activity in the sample. Results, reported in table 3, were expressed as U/L in heparinized plasma.

Q: With C[C@H](CS)C(=O)N1CCC[C@H]1C(=O)O [Captopril, 1-[(2S)-3-mercapto-2-methylpropionyl]-L-proline, reference compound] as the molecule, how does the Emax [1] read?
A: 0%

Q: What about the “Relaxation of aortic rings (in words)” value ([1]; any of the concentrations tested, curve not different from vehicle alone) of the same molecule?
A: did not produce relaxation

Q: What about the “Arterial pressure (MAP)” value [2] of the same molecule?
A: 145 mmHg

Q: What about the Bioavailability [3] of the same molecule?
A: about 75%

Q: And the “Elimination route (in words)” value [3]?
A: most of the drug is eliminated in urine

Q: Which IC50 [1] does the source give for CC(=O)SC[C@@H](C)C(=O)N1CCC[C@H]1C(=O)OCCCO[N+](=O)[O-] [Ex. 8, 1-[3-(Acetylthio)-(2S)-methyl-1-oxopropyl]-L-proline 3-nitrooxypropyl ester] here?
A: 26.1 ± 3.91 µM

Q: What about the Emax [1] of the same molecule?
A: 77.9 ± 3.21%

Q: And the “Arterial pressure (MAP)” value [2]?
A: 132 mmHg

Q: What about the “Reduction of blood pressure vs the control” value [2] of the same molecule?
A: 35%

Q: And the ACE activity [4]?
A: 59 U/L

Q: For C[C@H](CSC(=O)OCCCCO[N+](=O)[O-])C(=O)N1CCC[C@H]1C(=O)O [Ex. 2, 1-[(2S)-3-(4-Nitrooxybutoxycarbonyl)mercapto-2-methyl-1-oxopropyl]-L-proline], which IC50 [1] is on record?
A: 6 ± 0.87 µM

Q: And the Emax [1]?
A: 96.9 ± 1.87%

Q: For C[C@H](CSC(=O)OCO[N+](=O)[O-])C(=O)N1CCC[C@H]1C(=O)O [Ex. 3, 1-[(2S)-3-(Nitrooxymethoxycarbonyl)mercapto-2-methyl-1-oxopropyl]-L-proline], which IC50 [1] is on record?
A: 6.7 ± 0.84 µM

Q: And the Emax [1]?
A: 97.9 ± 1.51%

Q: With CC(=O)SC[C@@H](C)C(=O)N1CCC[C@H]1C(=O)Oc1cccc(CO[N+](=O)[O-])c1 [Ex. 8b, 1-[3-(acetylthio)-(2S)-methyl-1-oxopropyl]-L-proline 3-nitrooxymethylphenyl ester] as the molecule, how does the IC50 [1] read?
A: 4.01 ± 1.18 µM

Q: What about the Emax [1] of the same molecule?
A: 92.4 ± 4.15%

Q: What about the “Arterial pressure (MAP)” value [2] of the same molecule?
A: 116 mmHg

Q: What about the “Reduction of blood pressure vs the control” value [2] of the same molecule?
A: 43%

Q: And the ACE activity [4]?
A: 53 U/L

Q: Which results are given for CC(=O)SC[C@@H](C)C(=O)N1CCC[C@H]1C(=O)N[C@H](Cc1ccccc1)C(=O)Oc1cccc(CO[N+](=O)[O-])c1 [Ex. 9, 1-[(2S)-3-(Acetylthio)-2-methyl-1-oxopropyl]-L-prolyl-L-phenylalanine 3-nitrooxymethyl phenyl ester]?
A: IC50 [1]: 3.2 ± 0.65 µM; Emax [1]: 96.8 ± 0.65%
